Reference: PMC5909127, “Optimization of a “bump-and-hole” approach to allele-selective BET bromodomain inhibition” (Chemical Science, 2018)

Assays:
[1] = target: WT somatic BET bromodomains; experiment: ITC; conditions: mean and SD of all somatic bromodomains
BRD2: WT/WT = BRD2: WT/WT (Homo sapiens, UniProt P25440); experiment: ITC, BRD2 tandem construct
BRD4 BD1 WT [2] = target: T1, BRD4 BD1 WT (Homo sapiens, UniProt O60885); experiment: ITC; assay type: binding
BRD2 BD2 L/V [3] = target: T2, BRD2 BD2 L/V (Homo sapiens, UniProt P25440, L383V); experiment: competitive AlphaLISA; assay type: binding
T2 sequence (P25440 344-455 L383V): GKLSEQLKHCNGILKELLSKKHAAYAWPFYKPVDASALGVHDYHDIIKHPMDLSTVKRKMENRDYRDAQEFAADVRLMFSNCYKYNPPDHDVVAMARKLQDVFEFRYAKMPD

BRD3 BD2 WT [4] = target: T3, BRD3 BD2 WT (Homo sapiens, UniProt Q15059); experiment: ITC; assay type: binding
T3 sequence (Q15059 306-416): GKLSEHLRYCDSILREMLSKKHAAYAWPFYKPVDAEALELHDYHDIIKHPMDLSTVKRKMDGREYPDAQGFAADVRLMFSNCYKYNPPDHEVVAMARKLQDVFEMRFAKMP

[5] = target: WT BET bromodomains (BD1 and BD2 of BRD2, BRD3 and BRD4); experiment: competitive AlphaLISA (Bio-JQ1 displacement); assay type: binding, human; conditions: mean and SD of all somatic bromodomains; active enantiomer concentration
BRD4 BD2 L/V [6] = target: T4, BRD4 BD2 L/V (Homo sapiens, UniProt O60885, L387V); experiment: competitive AlphaLISA; assay type: binding
BRD2 BD2 WT [7] = target: T5, BRD2 BD2 WT (Homo sapiens, UniProt P25440); experiment: ITC; assay type: binding
T5 sequence (P25440 344-455): as the sequence (P25440 344-455 L383V) above, with V40L counted along it
BRD2: WT/LV = BRD2: WT/LV (Homo sapiens, UniProt P25440, L383V); experiment: ITC, BRD2 tandem construct
Chain of BRD2: WT/LV (P25440 73-455 L383V): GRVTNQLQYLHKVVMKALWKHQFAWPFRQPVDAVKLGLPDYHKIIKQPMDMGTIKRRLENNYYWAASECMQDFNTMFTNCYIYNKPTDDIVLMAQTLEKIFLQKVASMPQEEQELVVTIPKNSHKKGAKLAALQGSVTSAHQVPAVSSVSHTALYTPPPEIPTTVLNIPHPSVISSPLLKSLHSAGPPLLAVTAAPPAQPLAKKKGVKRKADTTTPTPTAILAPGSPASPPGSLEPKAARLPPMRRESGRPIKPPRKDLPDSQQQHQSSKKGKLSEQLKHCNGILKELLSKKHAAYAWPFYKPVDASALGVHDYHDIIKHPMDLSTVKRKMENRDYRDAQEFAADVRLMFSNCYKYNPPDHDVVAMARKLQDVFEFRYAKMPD

BRD4 BD1 L/V [8] = target: T6, BRD4 BD1 L/V (Homo sapiens, UniProt O60885, L94V); experiment: ITC; assay type: binding; conditions: ITC
BRD4 BD1 WT [9] = target: T1, BRD4 BD1 WT; experiment: competitive AlphaLISA; assay type: binding; conditions: AlphaLISA pIC50 Value BRD4 BD1 WT
BRD2 BD1 L/V [10] = target: T7, BRD2 BD1 L/V (Homo sapiens, UniProt P25440, L110V); experiment: ITC; assay type: binding
T7 sequence (P25440 71-176 L110V limits assumed): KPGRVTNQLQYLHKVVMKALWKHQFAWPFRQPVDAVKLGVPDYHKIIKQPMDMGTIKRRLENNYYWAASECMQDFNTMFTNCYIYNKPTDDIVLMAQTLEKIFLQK
BRD2: LV/WT = BRD2: LV/WT (Homo sapiens, UniProt P25440, L110V); experiment: ITC, BRD2 tandem construct
Chain of BRD2: LV/WT (P25440 73-455 L110V limits assumed): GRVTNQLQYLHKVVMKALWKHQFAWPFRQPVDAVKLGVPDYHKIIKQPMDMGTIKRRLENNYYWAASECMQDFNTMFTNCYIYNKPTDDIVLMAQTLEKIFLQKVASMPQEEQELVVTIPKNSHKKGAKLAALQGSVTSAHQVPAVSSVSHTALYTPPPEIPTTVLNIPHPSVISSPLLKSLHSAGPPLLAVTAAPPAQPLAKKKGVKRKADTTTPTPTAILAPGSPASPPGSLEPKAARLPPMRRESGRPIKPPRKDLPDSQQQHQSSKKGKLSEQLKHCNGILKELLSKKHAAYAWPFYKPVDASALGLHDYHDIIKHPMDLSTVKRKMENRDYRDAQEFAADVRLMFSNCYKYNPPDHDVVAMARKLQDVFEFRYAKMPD

BRD3 BD1 L/V [11] = target: T8, BRD3 BD1 L/V (Homo sapiens, UniProt Q15059, L70V); experiment: competitive AlphaLISA; assay type: binding
T8 sequence (Q15059 24-144 L70V limits assumed): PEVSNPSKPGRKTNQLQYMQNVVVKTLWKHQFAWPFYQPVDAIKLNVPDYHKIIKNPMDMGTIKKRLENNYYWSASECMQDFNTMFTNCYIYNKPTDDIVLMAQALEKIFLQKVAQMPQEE

BRD3 BD2 WT [12] = target: T3, BRD3 BD2 WT; experiment: competitive AlphaLISA; assay type: binding
Intrinsic Clearance = conditions: mouse liver microsomes
[13] = tested on: L/V somatic BET bromodomains; experiment: ITC; conditions: L/V minus WT
BRD2 BD1 WT = BRD2 BD1 WT (Homo sapiens, UniProt P25440); experiment: ITC; assay type: binding; conditions: ITC
Chain of BRD2 BD1 WT (P25440 71-176): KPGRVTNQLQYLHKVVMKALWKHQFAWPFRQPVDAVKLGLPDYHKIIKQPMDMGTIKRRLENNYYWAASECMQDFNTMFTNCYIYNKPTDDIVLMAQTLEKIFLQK

BRD3 BD1 WT [14] = target: T9, BRD3 BD1 WT (Homo sapiens, UniProt Q15059); experiment: competitive AlphaLISA; assay type: binding
T9 sequence (Q15059 24-144): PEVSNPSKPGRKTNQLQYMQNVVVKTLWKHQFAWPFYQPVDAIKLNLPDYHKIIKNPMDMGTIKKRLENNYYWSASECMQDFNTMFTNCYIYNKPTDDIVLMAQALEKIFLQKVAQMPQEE

BRDT BD1 WT = BRDT BD1 WT (Homo sapiens, UniProt Q58F21); experiment: competitive AlphaLISA; assay type: binding
BRD4 BD2 L/V [15] = target: T4, BRD4 BD2 L/V; experiment: ITC; assay type: binding
BRD3 BD1 L/V [16] = target: T8, BRD3 BD1 L/V; experiment: ITC; assay type: binding
BRD2 BD2 L/V [17] = target: T2, BRD2 BD2 L/V; experiment: ITC; assay type: binding
[18] = tested on: L/V BET bromodomains (BD1 and BD2 of BRD2, BRD3 and BRD4); experiment: competitive AlphaLISA (Bio-JQ1 displacement); assay type: binding, human; conditions: L/V minus WT
BRD4 BD1 L/V [19] = target: T6, BRD4 BD1 L/V; experiment: competitive AlphaLISA; assay type: binding; conditions: AlphaLISA pIC50 Value BRD4 BD1 L/V
BRD2 BD1 L/V [20] = target: T7, BRD2 BD1 L/V; experiment: competitive AlphaLISA; assay type: binding
BRDT BD1 L/V = BRDT BD1 L/V (Homo sapiens, UniProt Q58F21, L63V); experiment: competitive AlphaLISA; assay type: binding
BRD2 BD2 WT [21] = target: T5, BRD2 BD2 WT; experiment: competitive AlphaLISA; assay type: binding
BRD4 BD2 WT = BRD4 BD2 WT (Homo sapiens, UniProt O60885); experiment: ITC; assay type: binding
in vitro = conditions: PAMPA, pH 7.4
BRD3 BD1 WT [22] = target: T9, BRD3 BD1 WT; experiment: ITC; assay type: binding
BRDT BD2 WT = BRDT BD2 WT (Homo sapiens, UniProt Q58F21); experiment: competitive AlphaLISA; assay type: binding
BRD3 BD2 L/V [23] = target: T10, BRD3 BD2 L/V (Homo sapiens, UniProt Q15059, L345V); experiment: ITC; assay type: binding
T10 sequence (Q15059 306-416 L345V limits assumed): as the sequence (Q15059 306-416) above, with L40V counted along it
BRD2: LV/LV = BRD2: LV/LV (Homo sapiens, UniProt P25440, L110V/L383V); experiment: ITC, BRD2 tandem construct
Chain of BRD2: LV/LV (P25440 73-455 L110V/L383V limits assumed): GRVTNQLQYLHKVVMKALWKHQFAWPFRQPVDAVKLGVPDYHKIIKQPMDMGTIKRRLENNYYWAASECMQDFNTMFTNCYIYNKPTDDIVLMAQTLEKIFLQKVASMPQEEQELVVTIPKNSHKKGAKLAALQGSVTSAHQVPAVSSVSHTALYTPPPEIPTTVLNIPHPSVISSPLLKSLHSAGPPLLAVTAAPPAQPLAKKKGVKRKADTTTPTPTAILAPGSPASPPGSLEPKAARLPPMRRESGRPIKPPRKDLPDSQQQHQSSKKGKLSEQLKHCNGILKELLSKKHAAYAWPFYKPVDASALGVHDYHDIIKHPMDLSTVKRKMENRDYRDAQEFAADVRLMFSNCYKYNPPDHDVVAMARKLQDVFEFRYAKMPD

BRD3 BD2 L/V [24] = target: T10, BRD3 BD2 L/V; experiment: competitive AlphaLISA; assay type: binding
Plasma Half-life = conditions: BALB/c, mouse, pH 7.4

Chain of BRD2: WT/WT (P25440 73-455): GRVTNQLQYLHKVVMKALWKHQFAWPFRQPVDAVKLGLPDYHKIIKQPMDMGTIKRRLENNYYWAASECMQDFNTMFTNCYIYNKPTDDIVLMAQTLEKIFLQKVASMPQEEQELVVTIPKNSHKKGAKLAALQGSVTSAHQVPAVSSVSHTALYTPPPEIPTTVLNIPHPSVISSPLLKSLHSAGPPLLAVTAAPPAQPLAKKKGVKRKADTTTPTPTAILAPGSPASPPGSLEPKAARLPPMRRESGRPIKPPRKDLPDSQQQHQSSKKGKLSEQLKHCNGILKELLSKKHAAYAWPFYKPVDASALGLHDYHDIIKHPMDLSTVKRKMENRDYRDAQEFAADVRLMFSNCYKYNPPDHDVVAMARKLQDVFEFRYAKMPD

Structure (SMILES): CC[C@@H](C(=O)OC)[C@@H]1N=C(c2ccc(Cl)cc2)c2cc(OC)ccc2-n2c(C)nnc21 (relative stereo) [Compound 4]
- ITC pKd ± SD WT [1]: 5.1 ± 0.5
- Kd (BRD2: WT/WT): 3800 ± 1100 nM
- Kd (BRD4 BD1 WT [2]): 2500 nM
- ΔH BRD4 BD1 WT (BRD4 BD1 WT [2]; ITC): -2.6 kcal/mol
- N BRD4 BD1 WT (BRD4 BD1 WT [2]; ITC stoichiometry): 0.99
- IC50 (BRD2 BD2 L/V [3]): 158 nM
- ΔH BRD3 BD2 WT (BRD3 BD2 WT [4]; ITC): -3.8 kcal/mol
- N BRD3 BD2 WT (BRD3 BD2 WT [4]; ITC stoichiometry): 0.85
- AlphaLISA pIC50 ± SD WT [5]: 5.0 ± 0.1
- IC50 (BRD4 BD2 L/V [6]): 251 nM
- Kd (BRD2 BD2 WT [7]): 3300 nM
- ΔH BRD2 BD2 WT (BRD2 BD2 WT [7]; ITC): -1.2 kcal/mol
- N BRD2 BD2 WT (BRD2 BD2 WT [7]; ITC stoichiometry): 0.91
- Kd (BRD2: WT/LV): 620 ± 110 nM
- ΔH BRD4 BD1 L/V (BRD4 BD1 L/V [8]): -10.3 kcal/mol
- Kd (BRD4 BD1 L/V [8]; Kd BRD4 BD1 L/V, 30°C): 160 nM
- IC50 (BRD4 BD1 WT [9]): 7940 nM
- Kd (BRD2 BD1 L/V [10]): 240 nM
- ΔH BRD2 BD1 L/V (BRD2 BD1 L/V [10]; ITC): -12.6 kcal/mol
- Kd (BRD2: LV/WT): 570 ± 50 nM
- IC50 (BRD3 BD1 L/V [11]): 100 nM
- IC50 (BRD3 BD2 WT [12]): 10000 nM
- CL int (Intrinsic Clearance): 1.5 ml min^–1 g^–1
- ITC pKd ± SD Δ [13]: 1.8 ± 0.4
- ΔH BRD2 BD1 WT (BRD2 BD1 WT): -5.3 kcal/mol
- IC50 (BRD3 BD1 WT [14]): 6310 nM
- IC50 (BRDT BD1 WT): 15800 nM
- Kd (BRD4 BD2 L/V [15]): 330 nM
- ΔH BRD4 BD2 L/V (BRD4 BD2 L/V [15]; ITC): -7.9 kcal/mol
- Kd (BRD3 BD1 L/V [16]): 80 nM
- ΔH BRD3 BD1 L/V (BRD3 BD1 L/V [16]; ITC): -14.1 kcal/mol
- Kd (BRD2 BD2 L/V [17]): 50 nM
- ΔH BRD2 BD2 L/V (BRD2 BD2 L/V [17]; ITC): -8.5 kcal/mol
- AlphaLISA pIC50 ± SD Δ [18]: 1.7 ± 0.2
- IC50 (BRD4 BD1 L/V [19]): 251 nM
- IC50 (BRD2 BD1 L/V [20]): 316 nM
- IC50 (BRDT BD1 L/V): 501 nM
- IC50 (BRD2 BD2 WT [21]): 10000 nM
- Kd (BRD4 BD2 WT): 35000 nM
- ΔH BRD4 BD2 WT (BRD4 BD2 WT; ITC): -3.4 kcal/mol
- Papp (in vitro): 15.3 ×10⁻⁶ cm/s
- Kd (BRD3 BD1 WT [22]): 3300 nM
- ΔH BRD3 BD1 WT (BRD3 BD1 WT [22]; ITC): -4.9 kcal/mol
- N BRD3 BD1 WT (BRD3 BD1 WT [22]; ITC stoichiometry): 0.81
- IC50 (BRDT BD2 WT): 15800 nM
- Kd (BRD3 BD2 L/V [23]): 100 nM
- ΔH BRD3 BD2 L/V (BRD3 BD2 L/V [23]; ITC): -9.5 kcal/mol
- Kd (BRD2: LV/LV): 140 ± 10 nM
- IC50 (BRD3 BD2 L/V [24]): 100 nM
- half-life at 50 µM (Plasma Half-life): > 3 h
